{
  "source": "patent US20220354805A1",
  "about": "“Cannabidiol (CBD) as Chemical for Treating Aging-related Degenerative Diseases and Promoting Health Aging” (Hemix Biotech Limited, priority 2021, published 2022)",
  "key": {"[1]": {"tested_on": "Human mesenchymal stem cells (MSCs)", "experiment": "Senolytic effect in MSCs upon irradiation induced senescence (relative cell viability)", "format": "cell-based", "conditions": "24-hour treatment, normalized to non-irradiated control", "description": "Human mesenchymal stem cells (MSCs) were counted by using LUNA-II Automated Cell Counter. 1.0×10^5 cells were seeded to each well of 6-well plate and cultured for 24 hours. The cells were divided into two groups: non-irradiated and irradiated group. The irradiated group received gamma irradiation by irradiator. 10 Gy was the dosage of irradiation used. 24 hours after the irradiation, the non-irradiated and irradiated group were treated with different concentration of chemical. After 24-hour treatment, the cells were counted again using LUNA-II Automated Cell Counter. The population doubling level (PDL) which reflects the proliferation rate of cells was calculated by the formula: n=3.32×(logUCY−logI)+X, where n=the PDL number, UCY=the cell yield at that time point, I=the initial cell number, and X=the doubling level of the cells used to initiate the subculture being quantitated.\nThe relative cell viability was calculated by normalizing each sample to non-irradiated control sample. […] As CBD selectively killed senescent MSCs while keeping proliferating MSCs unharmed, it was discovered to be a novel senolytic. Referring to FIG. 12b, Western blotting was carried to investigate the mechanism behind CBD's senolytic effect. […] While as proliferating and senescent MSCs responded differently in phosphorylated akt level."}, "[2]": {"tested_on": "wildtype and LMNA^G609G/G609G MEFs", "experiment": "Senescence-associated beta-galactosidase staining of MEFs", "format": "cell-based, mouse", "conditions": "vs control cells", "description": "In the step of determining the senescence lever and optimal concentration, the primary mouse embryonic fibroblasts (MEFs) at passage 3 were seeded and cultured in chamber slides. The slides were washed twice with ice-cold phosphate buffered saline (PBS). Using senescence-associated beta-galactosidase staining kit, the cells were fixed for 10 minutes with provided paraformaldehyde and washed twice with PBS. The slides were then incubated with the staining solution at 37° C. overnight. On the following day, the slides were washed twice with PBS and mounted with 40% glycerol in PBS. The stained cells were observed under a light microscope. Senescent cells were stained blue while proliferating cells were unstained. The percentage of senescent cells was quantified by counting the number of stained and unstained cells."}, "LMNA^G609G/G609G MEFs": {"tested_on": "LMNA^G609G/G609G MEFs", "experiment": "Relative nuclear circularity of MEFs", "format": "cell-based, mouse", "conditions": "12-day CBD treatment, vs control", "description": "In the step of determining the relative nuclear circularity, the primary mouse embryonic fibroblasts (MEFs) at passage 3 were seeded and cultured in chamber slides. Nuclei were stained using DAPI or LMNA/C antibodies. The fluorescence images were captured using confocal microscopy. The perimeter and area of the individual nucleus were measured using software CellProfiler. Relative nuclear circularity was calculated using the formula: […]\nA value of 1 in relative nuclear circularity indicates a perfect circle. Nuclei with relative nuclear circularity closer to 0 indicate they are more irregularly shaped."}, "[3]": {"tested_on": "wildtype and LMNA^G609G/G609G MEFs", "experiment": "Cell proliferation rate (population doubling level, PDL) of MEFs", "format": "cell-based, mouse", "description": "In the step of isolating mouse embryo fibroblasts (MEFs), heterozygous (LMNA^G609G/+) mice were set for mating. The date of pregnancy of mice was identified by checking for vaginal plug in the morning following the day of mating. If the vaginal plug was found, the mouse was considered to be pregnant for 0.5 days (E0.5). When the embryos reached E12.5 to E13.5, the pregnant mice were sacrificed, and the embryos were isolated from the mice inside tissue culture hood using sterile utensils. The embryos were placed in phosphate buffered saline (PBS). Their head and liver were removed. A portion of the head was used for genotyping to identify the genotype of each embryo. The body of each embryo was transferred to 1mL of 0.1% Trypsin-EDTA solution in a well of 12-well plate. Using sterile scissors, embryos were cut into small pieces. The 12-well plate was then placed in a 37° C. incubator for 10 minutes. Followed by vigorous pipetting of the embryos in Trypsin-EDTA solution until the embryos wholly dissolved into the solution. The 12-well plate was then placed in 37° C. incubator for 5 minutes. The homogenized solution was then transferred to 9 mL of Gibco's High Glucose Dulbecco's Modified Eagle's Medium (DMEM) supplemented with sodium bicarbonate (3.7 g/L), HEPES (6 g/L), 10% fetal bovine serum (FBS) and penicillin-streptomycin (100 units/mL). The isolated MEFs were considered to be at passage 0 (P0). P3 MEFs were used in experiments as they have optimal cellular responses to stimuli. […]\nIn the step of determining the cell's proliferation rate and optimal concentration, primary mouse embryonic fibroblasts (MEFs) at passage 3 were counted by using LUNA-II Automated Cell Counter. […] After 4-day and 8-day treatment, the cells were counted again using LUNA-II Automated Cell Counter. The population doubling level (PDL) which reflects the proliferation rate of cells was calculated by the formula: n=3.32×(logUCY−logI)+X, where n=the PDL number, UCY=the cell yield at that time point, I=the initial cell number, and X=the doubling level of the cells used to initiate the subculture being quantitated."}, "[4]": {"tested_on": "premature aging LMNA^G609G/G609G mice", "experiment": "Healthspan analysis of LMNA^G609G/G609G mice", "format": "in vivo, mouse", "description": "In the step of analyzing the healthspan of LMNA^G609G/G609G mice, for chemical treatment in mice, 2 months old LMNA^G609G/G609G mice were used. They received an intraperitoneal injection (IP) twice a week until they reached the humane point. Different dosages were used for the injection, 50 mg/kg of CBD was identified as the optimal dosage with the greatest extend in healthspan of the treated mice. CBD was dissolved in 5% DMSO and 5% polyethylene glycol (PEG) in sterile saline and stored at −80° C. for up to 1 month."}, "[5]": {"conditions": "50 mg/kg CBD IP twice a week from 2 months old"}},
  "data": [
    {"smiles": "C=C(C)[C@@H]1CCC(C)=C[C@H]1c1c(O)cc(CCCCC)cc1O", "note": "[CBD, Cannabidiol]", "values": [
      {"measurement": "relative cell viability, irradiated senescent MSCs", "setting": "[1]; 10 Gy gamma irradiation", "value": "significantly decrease the cell viability"},
      {"measurement": "relative cell viability, non-irradiated control MSCs", "setting": "[1]", "value": "significantly increase the cell viability"},
      {"measurement": "senescence levels", "setting": "[2]; 10 μM CBD, 8 days", "value": "decrease in senescence levels"},
      {"measurement": "senescence levels (toxicity effect)", "setting": "[2]; 50 μM CBD, 4 days", "value": "increase in senescence levels"},
      {"measurement": "relative nuclear circularity", "setting": "LMNA^G609G/G609G MEFs", "value": "significantly increased the relative nuclear circularity"},
      {"measurement": "effect on PDL", "setting": "[3]; 10 μM CBD, 4 and 8 days of treatment", "value": "increased the PDL to the greatest extent"},
      {"measurement": "effect on PDL (toxicity effect)", "setting": "[3]; 50 μM CBD, 4 days", "value": "decrease in PDL"},
      {"measurement": "optimal concentration (PDL)", "setting": "[3]; MEFs, 4 and 8 days of treatment", "value": 10, "unit": "µM"},
      {"measurement": "increase in maximum healthspan", "setting": "[4]; [5]", "value": 19.8, "unit": "%"},
      {"measurement": "increase in median healthspan", "setting": "[4]; [5]", "value": 8, "unit": "%"},
      {"measurement": "increase of healthspan (FIG. 6b legend)", "setting": "[4]; 50 mg/kg CBD twice a week from 2 months old", "value": 11.2, "unit": "%"},
      {"measurement": "optimal dosage (greatest extend in healthspan)", "setting": "[4]; IP twice a week, from 2 months old", "value": 50, "unit": "mg/kg"}
    ]}
  ]
}
